Experimental data published in patent US12723024B2 (priority 2021, dated 2026).

Tests used:
[1] = Salt screening (slurry crystallization); assay type: physicochemical; parameters: key to Salt screening result: (+) shows that a crystalline salt was formed; (−) physical mixtures; settings: for Polymorph obtained in salt screening: XRPD; for Salt screening result: slurry 50° C. then 25° C.
Procedure: About 45 mg was added to a suitable solvent and different equivalents of acids were added under stirring at 50° C. for about 2 hours and then at 25° C. for at least 32 hours. Ethanol, acetone, and ACN were used as screening solvents. When no precipitation was obtained or only a few solids were obtained, the solutions were placed at 5° C. for crystallization.
(§1) Obtained suspensions were taken out and centrifuged. Solids obtained was analysed by XRPD. Salts with high or medium crystallinity were further characterized (see Table 5).

[2] = Crystallinity by XRPD; assay type: physicochemical; settings: salt screening sample
Procedure: as §1
(§2) According to the salt screening results (see Table 4), totally 19 potential salt hits were identified. All the potential salt hits were further investigated by Differential Scanning Calorimetry (DSC), Thermogravimetric analysis (TGA), H-NMR, Ion chromatography (IC), Karl Fischer titration (KF), and Polarized Light Microscopy (PLM) to confirm their identity and evaluate their physicochemical properties as shown in Table 5 below.

[3] = Thermogravimetric analysis (TGA) weight loss; assay type: physicochemical; settings: salt screening sample, at the temperature given (80-200° C.)
Text: as §2

[4] = assay type: physicochemical; settings: salt screening sample
Text: as §2

[5] = Hygroscopicity (water uptake) of salt hits; assay type: physicochemical; settings: salt screening sample; for Hygroscopicity: grade in words
Text: as §2

SMILES | Polymorph obtained in salt screening ([1]; ACN) | Salt screening result ([1]; ACN) | Salt screening result ([1]; Acetone) | Salt screening result ([1]; EtOH) | Crystallinity [2] | Weight loss (%) [3] | Water content (% w/w) [4] | Hygroscopicity [5] | Polymorph obtained in salt screening ([1]; Acetone) | Polymorph obtained in salt screening ([1]; EtOH) | Hygroscopicity (water uptake % w/w) [5]
COc1cc(C(F)(F)F)c(OC)cc1[C@@H]1CCCNC1.C[C@H](O)C(=O)O [L-lactate salt Polymorph A] | Polymorph A | + | Thin suspension | Clear solution | High | 4.9% | 5.1% w/w | None |  |  | 
COc1cc(C(F)(F)F)c(OC)cc1[C@@H]1CCCNC1.COc1cc(C(F)(F)F)c(OC)cc1[C@@H]1CCCNC1.O=C(O)/C=C/C(=O)O [Hemi-fumarate salt Polymorph A] |  |  |  |  | Medium | 4.8% | 5.5% w/w |  |  |  | 
COc1cc(C(F)(F)F)c(OC)cc1[C@@H]1CCCNC1.O=C(O)/C=C/C(=O)O [Mono-fumarate salt Polymorph C] | Polymorph C | + | + | + | Medium | 0.6% |  |  | Polymorph C | Polymorph C | (~0.2%) % w/w
CC(=O)O.COc1cc(C(F)(F)F)c(OC)cc1[C@@H]1CCCNC1 [Acetate salt Polymorph A] | Polymorph A | + | + | Clear solution | High | 0.2% |  | None | Polymorph A |  | 
COc1cc(C(F)(F)F)c(OC)cc1[C@@H]1CCCNC1.N[C@@H](CCC(=O)O)C(=O)O [L-glutamate salt Polymorph C] |  |  |  |  | High | 6.3% | 8.7% w/w |  |  |  | 
COc1cc(C(F)(F)F)c(OC)cc1[C@@H]1CCCNC1.N[C@@H](CC(=O)O)C(=O)O [L-aspartate salt Polymorph A] | Polymorph A | + | − | + | High | 3.9% | 7.0% w/w | Hygroscopic |  | Polymorph A | (~4.3%) % w/w
COc1cc(C(F)(F)F)c(OC)cc1[C@@H]1CCCNC1.COc1cc(C(F)(F)F)c(OC)cc1[C@@H]1CCCNC1.O=C(O)CCC(=O)O [Hemi-succinate salt Polymorph B] | Polymorph A | + | + | + | Medium | 4.8% |  | Hygroscopic | Polymorph A | Polymorph A | (~1.8%) % w/w
COc1cc(C(F)(F)F)c(OC)cc1[C@@H]1CCCNC1.O=C(O)C[C@H](O)C(=O)O [L-malate salt Polymorph A] | Polymorph A | + | + | + | High | 2.3% | 5.9% w/w |  | Polymorph A | Polymorph A | (~0.3%) % w/w
